{"source": "BindingDB's records for doi:10.1016/j.bioorg.2007.03.001", "about": "(Burnham Institute For Medical Research, 2007)", "target": "Isoform Bcl-X(L) of Bcl-2-like protein 1 (Bcl-xL) (Homo sapiens, UniProt Q07817)", "sequence (Q07817 whole entry G70A, canonical isoform)": "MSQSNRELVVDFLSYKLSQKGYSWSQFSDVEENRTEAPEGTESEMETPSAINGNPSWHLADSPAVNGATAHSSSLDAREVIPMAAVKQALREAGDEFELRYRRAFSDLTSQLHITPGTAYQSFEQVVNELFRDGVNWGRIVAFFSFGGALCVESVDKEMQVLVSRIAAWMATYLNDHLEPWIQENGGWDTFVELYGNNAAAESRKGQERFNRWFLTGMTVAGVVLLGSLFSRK", "experiment": "DELFIA Assay", "from_the_text": "In order to figure whether these compounds were capable of displacing the interactions between Bci-XL and it's pro-apoptotic counterparts, it was testes in a heterogeneous lanthanide-based assay that have recently developed based on the DELFIA (dissociation enhanced lanthanide fluoro-immuno assay)technology (Perkin-Elmer)."}
{"smiles": "O=C(O)c1ccccc1C(=O)c1ccc(Sc2ccc(Cl)cc2)c([N+](=O)[O-])c1", "note": "[BI-21C6]", "values": [{"measurement": "IC50", "result": 0.5, "unit": "µM"}]}
{"smiles": "N#Cc1c(-c2ccc3c(c2)OCO3)cc(-c2ccccc2O)[nH]c1=O", "note": "[BI-21C5]", "values": [{"measurement": "IC50", "result": 5.1, "unit": "µM"}, {"measurement": "Kd", "result": 19.8, "unit": "µM"}]}
{"smiles": "O=C(O)c1ccccc1C(=O)c1ccc(Sc2ccccc2)c([N+](=O)[O-])c1", "note": "[BI-21C7]", "values": [{"measurement": "IC50", "result": 5.7, "unit": "µM"}]}
{"smiles": "Cc1csc(NC(=O)c2ccccc2C(=O)O)c1-c1nc2ccccc2s1", "note": "[BI-21C4]", "values": [{"measurement": "IC50", "result": 3.3, "unit": "µM"}]}
